Reference: US6667034B2, “METHODS FOR REGULATING THE SPECIFIC LINEAGES OF CELLS PRODUCED IN A HUMAN HEMATOPOIETIC CELL CULTURE, METHODS FOR ASSAYING THE EFFECT OF SUBSTANCES ON LINEAGE-SPECIFIC CELL PRODUCTION, AND CELL COMPOSITIONS PRODUCED BY THESE CULTURES” (The Regents of the University of Michigan, priority 1989, dated 2003)

Assays:
Type in all cases: cell-based
Human bone marrow cells [1] = experiment: Cumulative cell production by cell lineage in growth factor supplemented LTBMCs over the first 6.5 weeks (Example 5, Table 4); settings: first 6.5 weeks of culture
Text: Cells, hematopoietic progenitor cell assays, LTBMCs, and statistical analyses were as in Example 1.

Human bone marrow cells [2] = experiment: Cumulative number of progenitor cells removed from rapidly perfused HGF supplemented LTBMCs (Example 5, Table 5)
Method: Hematopoietic progenitor cell assay: Nonadherent hematopoietic cells removed from culture were counted and plated at 1·10^5 cells/ml or fewer cells in methylcellulose. GM-CSF and Epo were added to the methylcellulose at 20 ng/ml and 2 U/ml, respectively. The cells were plated in 24 well plates at 0.25 ml/well and incubated at 37° C. for 14 days. The colonies were then counted under an inverted microscope and colonies greater than 50 cells were scored as GM-colony forming units (CFU-GM), erythroid burst-forming unit (BFU-E), or granulocyte erythroid megakaryocyte macrophage-colony forming unit (CFU-GEMM). Cells, hematopoietic progenitor cell assays, LTBMCs, and statistical analyses were as in Example 1.

Human bone marrow cells [3] = experiment: Population balance: cumulative production of CFU-GM removed and differentiated in HGF supplemented LTBMCs (Example 5, Table 7)
Text: (§1) Production of Progenitor Cells from Stem Cells. Although the most primitive hematopoietic cells that can be directly assayed are the progenitor cells; CFU-GEMM, CFU-GM, and BFU-E, the presence and activity or earlier stem cells can be inferred by the continued production of progenitor cells. Thus, progenitor cell production is an indirect measure of primitive stem cell activity. One can assay stem cells, therefore, by analyzing the kinetics of the progenitor cell pool. The four process rates that determine the progenitor cell pool size are: V1: The rate of production of progenitor cells by more undifferentiated stem cells; V2: The rate of loss of progenitor cells through the act of sampling of nonadherent cells from the culture; V3: The rate of loss of progenitor cells by their differentiation to mature cells of a particular lineage; V4: The rate of death of progenitor cells. The initial number, C0, of each progenitor cell species can be determined by assay at culture initiation. The question that we wish to answer is; Are stem cells being stimulated to produced progenitor cells—i.e. is V1 greater than zero? Cell death, V4, cannot be assessed. V2 however, can be measured by assaying the nonadherent cells removed from culture, and V3 can be estimated from nonadherent cell production data. A conservative estimate of the rate of progenitor cell differentiation, V3, can be determined by assuming that each progenitor cell has 10 divisions remaining to become a terminally differentiated cell. Therefore, each progenitor cell is equivalent to 2^10 (1024) mature cells. From the total number of mature cells produced of a specific lineage, the number of progenitor cells (BFU-E and CFU-GM) that differentiated can be back-calculated. Therefore, if the removal and differentiation of progenitor cells (V2+V3) exceeds the numbers of progenitor cells inoculated, Co, then progenitor cells must have been produced, and V1 is greater than zero.

Human bone marrow cells [4] = experiment: Population balance: cumulative production of BFU-E removed and differentiated in HGF supplemented LTBMCs (Example 5, Table 6)
Text: as §1

[5] = IL-3 1 ng/ml, GM-CSF 1 ng/ml, Epo 0.1 U/ml, IL-6 10 U/ml, G-CSF 0.1 ng/ml
[6] = cumulative, rapidly perfused LTBMCs
[7] = rapidly perfused HGF supplemented LTBMCs
[8] = back-calculated assuming each progenitor cell is equivalent to 2^10 (1024) mature cells

GM-CSF: hematopoietic growth factor, 1 ng/ml (Amgen Biologicals, Cat. No. 13050)
Cumulative cell production: Early Granulocytes (EG) (Human bone marrow cells [1]; [5]): 2.7 ×10^6 cells per culture | Cumulative cell production: Erythroid (E) (Human bone marrow cells [1]; [5]): 0.11 ×10^6 cells per culture | Cumulative cell production: Late Granulocytes (LG) (Human bone marrow cells [1]; [5]): 6.8 ×10^6 cells per culture | Cumulative cell production: Macrophages (Mo) (Human bone marrow cells [1]; [5]): 2.1 ×10^6 cells per culture | ratio (LG/EG) (Human bone marrow cells [1]; late to early granulocytes): 2.5 | increase in the total number of CFU-GEMM removed from culture (Human bone marrow cells [2]; [6]): 1.6 fold | effect on total CFU-GM (Human bone marrow cells [2]; individual growth factor): only a slight increase | cumulative number of progenitor cells removed: BFU-E (Human bone marrow cells [2]; [7]): 800 | cumulative number of progenitor cells removed: CFU-GEMM (Human bone marrow cells [2]; [7]): 80 | cumulative number of progenitor cells removed: CFU-GM (Human bone marrow cells [2]; [7]): 2200 | Estimated number of CFU-GM that differentiated (V3) (Human bone marrow cells [3]; [8]): 11,700 | Number of GM cells removed (×10^4) (V3) (Human bone marrow cells [3]; [6]): 11.7 ×10^4 | Number of CFU-GM removed (plated) (V2) (Human bone marrow cells [3]; every fourth biweekly sampling assayed, others by linear interpolation, inoculum 2500 CFU-GM): 2200 | Total number of CFU-GM (V3) (Human bone marrow cells [3]; removed plus differentiated): 13,900 | Estimated number of BFU-E that differentiated (V3) (Human bone marrow cells [4]; [8]): 100 | Number of erythroid cells removed (×10^4) (V3) (Human bone marrow cells [4]; [6]): 0.1 ×10^4 | Number of BFU-E removed (plated) (V3) (Human bone marrow cells [4]; every fourth biweekly sampling assayed, others by linear interpolation, inoculum 2900 BFU-E): 800 | Total number of BFU-E (V3) (Human bone marrow cells [4]; removed plus differentiated, inoculum 2900): 900
